Reference: patent publication US8569294B2, “2-(cyclic amino)-pyrimidone derivatives” (Mitsubishi Tanabe Pharma Corporation, priority 2006, dated 2013)

biological target: T1, bovine cerebral TPK1 (Bos taurus, UniProt A0A3Q1MT31); assay: Inhibitory activity against P-GS1 phosphorylation by bovine cerebral TPK1; type: biochemical; conditions: 41.7 μM [γ-32P] ATP, 25° C., 2 hours
T1 construct: P-GS1 Phosphorylation by Bovine Cerebral TPK1; from tissue; host or cells: bovine cerebrum (brain)
Method: Inhibitory Activity of the Medicament of the Present Invention Against P-GS1 Phosphorylation by Bovine Cerebral TPK1
A mixture containing 100 mM MES-sodium hydroxide (pH 6.5), 1 mM magnesium acetate, 0.5 mM EGTA, 5 mM β-mercaptoethanol, 0.02% Tween 20, 10% glycerol, 12 μg/ml P-GS1, 41.7 μM [γ-^32P] ATP (68 kBq/ml), bovine cerebral TPK1 and a compound shown in Table (a final mixture contained 1.7% DMSO deriving from a solution of a test compound prepared in the presence of 10% DMSO) was used as a reaction system. The phosphorylation was started by adding ATP, and the reaction was conducted at 25° C. for 2 hours, and then stopped by adding 21% perchloric acid on ice cooling. The reaction mixture was centrifuged at 12,000 rpm for 5 minutes and adsorbed on P81 paper (Whatmann), and then the paper was washed four times with 75 mM phosphoric acid, three times with water and once with acetone. The paper was dried, and the residual radioactivity was measured using a liquid scintillation counter.

T1 sequence (A0A3Q1MT31 1-419): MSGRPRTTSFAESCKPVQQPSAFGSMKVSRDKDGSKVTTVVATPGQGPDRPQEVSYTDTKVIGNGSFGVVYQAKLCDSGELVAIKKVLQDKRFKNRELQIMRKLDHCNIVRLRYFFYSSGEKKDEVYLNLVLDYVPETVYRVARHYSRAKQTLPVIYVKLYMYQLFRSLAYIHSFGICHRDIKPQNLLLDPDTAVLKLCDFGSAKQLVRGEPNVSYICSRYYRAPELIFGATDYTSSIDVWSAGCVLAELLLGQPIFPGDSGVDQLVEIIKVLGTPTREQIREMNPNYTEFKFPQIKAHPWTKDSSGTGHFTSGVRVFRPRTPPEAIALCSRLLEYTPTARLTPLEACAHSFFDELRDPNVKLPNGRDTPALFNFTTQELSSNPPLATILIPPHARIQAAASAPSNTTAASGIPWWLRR

Structure (SMILES) | IC50
C[C@@H]1CN(c2ccccc2)CCN1c1nc(-c2ccncn2)cc(=O)n1C [F24] | 1.4 nM
C[C@@H]1COCCN1c1nc(-c2ccncc2F)cc(=O)n1C [B62] | 7 nM
C[C@@H]1CN(c2ncccn2)CCN1c1nc(-c2ccncc2F)cc(=O)n1C [F56] | 2.2 nM
COc1ccccc1N1C[C@@H]2CN(c3nc(-c4ccncc4F)cc(=O)n3C)C[C@@H]2C1 [D16] | 14 nM
Cn1c(N2CCO[C@H]3CCCC[C@@H]32)nc(-c2ccncn2)cc1=O (racemic) [B69, 1-Methyl-2-((4aRS,8aRS)-trans-octahydro-benzo[1,4]oxazin-4-yl)-1H-[4,4′]bipyrimidinyl-6-one] | 4 nM
Cn1c(N2CCO[C@H]3c4ccccc4OC[C@H]32)nc(-c2ccncn2)cc1=O [B46] | 2.5 nM
C[C@@H]1CN(C(=O)c2ccc(N(C)C)cc2)CCN1c1nc(-c2ccncn2)cc(=O)n1C [F69] | 2.4 nM
C[C@H](N)c1nc(-c2ccc(N3CCN(c4nc(-c5ccncc5)cc(=O)n4C)[C@H](C)C3)cc2)no1 [F148] | 2.6 nM
Cn1c(N2CCO[C@H]3c4ccccc4CC[C@@H]32)nc(-c2ccncc2F)cc1=O [B6] | 1.7 nM
COc1cccc(N[C@@H]2CCN(c3nc(-c4ccncn4)cc(=O)n3C)C2)c1 [D42] | 7.9 nM
Cn1c(N2CC3CCC2C(c2ccccc2)C3)nc(-c2ccncc2)cc1=O (centres unmarked) [B9] | 1.2 nM
COc1ccccc1NC1CC2CCC(C1)N2c1nc(-c2ccncc2F)cc(=O)n1C (centres unmarked) [B16] | 2.8 nM
COc1ccc2c(c1)CC[C@H]1[C@H]2OCCN1c1nc(-c2ccncc2F)cc(=O)n1C [B20] | 1.1 nM
Cn1c(N2C3CCCC2CC3)nc(-c2ccncc2F)cc1=O [B77] | 9.8 nM
COc1cccc2c1CC[C@@H]1[C@H]2OCCN1c1nc(-c2ccncc2)cc(=O)n1C [B37] | 1.5 nM
Cn1c(N2CCCC2Cc2ccccc2)nc(-c2ccncc2F)cc1=O (centres unmarked) [D95] | 5.6 nM
Cn1c(N2CCN3CCc4ccccc4C3C2)nc(-c2ccncc2)cc1=O (centres unmarked) [B109, 2-(1,3,4,6,7,11b-Hexahydro-pyrazino[2,1-a]isoquinolin-2-yl)-3-methyl-6-pyridin-4-yl-3H-pyrimidin-4-one] | 14 nM
